Results from paper PMC11211886 (Frontiers in Pharmacology, 2024).
Several values for one entry are separate records, joined by “and”; a condition that tells them apart may be missing. Identical values can stand only once. Like-named read-outs stand apart in the source and are kept apart here.

How the values were obtained:
CYP2B6 = target: T1, CYP2B6 (Homo sapiens, UniProt P20813); assay: Reversible CYP inhibition in HLM, CYP2B6 (bupropion); format: in vitro ADME; conditions: for enzyme activity remaining: CYP2B6, HLM
T1 construct: tissue Life Technologies (Durham, NC, USA); host or cells: human liver microsomes
T1 sequence (P20813 1-491): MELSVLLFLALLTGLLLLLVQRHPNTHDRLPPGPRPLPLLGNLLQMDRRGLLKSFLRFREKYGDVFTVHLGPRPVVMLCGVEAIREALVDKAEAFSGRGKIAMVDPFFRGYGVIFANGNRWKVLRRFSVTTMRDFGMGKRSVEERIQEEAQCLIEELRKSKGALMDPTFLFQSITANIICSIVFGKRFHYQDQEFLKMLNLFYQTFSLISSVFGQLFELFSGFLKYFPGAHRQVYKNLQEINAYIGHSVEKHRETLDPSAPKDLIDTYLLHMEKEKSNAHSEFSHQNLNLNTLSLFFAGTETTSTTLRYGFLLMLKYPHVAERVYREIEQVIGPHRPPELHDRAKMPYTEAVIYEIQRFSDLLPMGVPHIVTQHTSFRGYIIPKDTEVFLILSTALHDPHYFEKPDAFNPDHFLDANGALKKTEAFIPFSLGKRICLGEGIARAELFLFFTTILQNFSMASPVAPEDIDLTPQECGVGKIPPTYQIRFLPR
Protocol: The markers used to determine the activities of CYP isoforms were phenacetin O-deethylation for CYP1A2 (probe substrate: 50 µM phenacetin), bupropion hydroxylation for CYP2B6 (probe substrate: 70 µM bupropion), paclitaxel 6α-hydroxylation for CYP2C8 (probe substrate: 10 µM paclitaxel), diclofenac 4′-hydroxylation for CYP2C9 (probe substrate: 5 µM diclofenac), S-(+)-mephenytoin 4′-hydroxylation for CYP2C19 (probe substrate: 20 µM S-(+)-mephenytoin), dextromethorphan O-demethylation for CYP2D6 (probe substrate: 6 µM dextromethorphan), chlorzoxazone 6′-hydroxylation for CYP2E1 (probe substrate: 70 µM chlorzoxazone), and testosterone 6β-hydroxylation and midazolam 1′-hydroxylation for CYP3A4/5 (probe substrate: 45 µM testosterone and 5 µM midazolam). […] Alpha-naphthoflavone (0.04 µM), 2-phenyl-2-(1-piperidinyl)propane (5 µM), quercetin (1 µM), sulfaphenazole (0.5 µM), ticlopidine (4 µM), quinidine (0.2 µM), diethyldithiocarbamate (20 µM), and ketoconazole (0.05 µM) were used as positive inhibitors of CYP1A2, 2B6, 2C8, 2C9, 2C19, 2D6, 2E1, and 3A4, respectively. The vehicle control was prepared in the same composition as inhibitor solutions but free of inhibitors. The concentrations of probe substrates were close to Km values that were determined in-house and within the range recommended by the FDA ([Huang et al., 2007]). Reaction mixtures were incubated at 37°C for 5, 20, or 30 min, depending on the probe substrates of CYP isoforms. The reactions were terminated by adding cold acetonitrile containing IS, and the terminated incubation mixtures were centrifuged at 3,000 g for 10 min before LC-MS/MS analysis.

[1] = Metabolic stability in rat liver microsomes; format: in vitro ADME; conditions: for CLint scaled at 1 µM: pH 7.4, Predicted CL int, iv vivo
Protocol: FMO was deactivated by heating liver microsomes at 45°C for 5 min. […] (1) metabolic clearance is the major mechanism of clearance; (2) liver is the major organ of clearance; and (3) oxidation is the major metabolic pathway. CLint,in vitro=k / Cmicrosomes , Scaled CLint,in vivo=CLint,in vitro×microsomes yield×liver weight, where Cmicrosomes means the experimental protein concentration (0.5 mg/mL) in the incubation system.

CYP2B6 mRNA = assay: CYP induction in human hepatocytes, CYP2B6 mRNA (RT-PCR)
Protocol: (§1) […] […] […] Enzyme activity for each CYP isoform was reported as a fold change over vehicle control and the percent of positive control (detailed calculation in Supplementary 1.1). Hepatocytes were harvested with a lysis buffer from RNeasy 96 Kit (Qiagen Inc., Germantown, MD, USA) to isolate RNA, which was analyzed by real-time quantitative polymerase chain reaction (RT-PCR). […] Emax (the maximal observed induction) and EC50 (the concentration that supports half-maximal induction) were estimated by non-linear regression of fold increase in CYP mRNA expression versus concentration plots.
(§2) % of positive control = [(fold change in treated sample)-1] / [(fold change in positive control)-1] × 100
(§3) Based on the gene expression, a minimum of 4-fold increase of positive control compared to vehicle control, a minimum of 2-fold increase of the test article compared vehicle control and increased in a concentration-dependent manner was considered as the cutoff for a positive signal in in vitro induction assay.

CYP2C9 = target: T2, CYP2C9 (Homo sapiens, UniProt P11712); assay: Time-dependent CYP inhibition in HLM, CYP2C9; format: in vitro ADME; conditions: 10 μM, 30 min pre-incubation with NADPH
T2 construct: tissue Life Technologies (Durham, NC, USA); host or cells: human liver microsomes
Protocol: The procedure of time-dependent CYP inhibition was similar to that used for CYP reversible inhibition, as mentioned above, except that a pre-incubation step was added. […] Another appropriate volume of the NADPH-regenerating system and probe substrate were added to initiate the CYP isoform enzyme activity test step. For this step, the incubation period was 10 min, except for CYP2B6, CYP2C8, and CYP3A4/5 (probe substrate: midazolam), which was 3 min to make sure the reaction was under initial linear rates. After incubation for the designated time periods at 37°C, the ice-cold acetonitrile containing IS was added to quench the reaction. […] (Ainactivator/[…] represents the enzyme activity remaining due to the inhibition by the diluted inactivator in the enzyme activity test step, and (Ainactivator/[…] represents the remaining enzyme activity due to pre-incubation loss plus inhibition by the diluted inactivator in the enzyme activity test step.

CYP2C9 mRNA = assay: CYP induction in human hepatocytes, CYP2C9 mRNA (RT-PCR)
Protocol: as §1, §2, §3

T2 sequence (P11712 whole entry): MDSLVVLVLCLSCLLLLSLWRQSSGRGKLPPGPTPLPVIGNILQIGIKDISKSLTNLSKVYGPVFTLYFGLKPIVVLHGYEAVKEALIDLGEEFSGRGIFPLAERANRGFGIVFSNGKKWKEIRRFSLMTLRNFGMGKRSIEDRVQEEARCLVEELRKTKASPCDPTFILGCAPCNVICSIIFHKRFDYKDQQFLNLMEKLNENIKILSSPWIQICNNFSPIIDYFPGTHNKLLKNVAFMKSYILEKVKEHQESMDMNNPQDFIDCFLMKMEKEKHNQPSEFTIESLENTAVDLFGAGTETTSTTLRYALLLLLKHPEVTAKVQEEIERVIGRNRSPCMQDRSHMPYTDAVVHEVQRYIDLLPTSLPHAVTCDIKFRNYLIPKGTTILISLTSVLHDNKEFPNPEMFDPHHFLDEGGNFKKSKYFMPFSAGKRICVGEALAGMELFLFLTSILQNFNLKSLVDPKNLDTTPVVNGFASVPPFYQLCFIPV

With `C[C@H](Nc1ncnc(N)c1C#N)c1cc2ncc(Cl)n2nc1-c1ccccc1` [Amdizalisib] the enzyme activity remaining (CYP2B6; 0.4 μM) was 100% and 98.9%, the enzyme activity remaining (CYP2B6; 2 μM) was 96.2% and 92.1% and the enzyme activity remaining (CYP2B6; 5 μM) was 97.4% and 95.1%. The enzyme activity remaining (CYP2B6; 10 μM) was 97.7% and 96.6%, the enzyme activity remaining (CYP2B6; 25 μM) was 87.6% and the enzyme activity remaining (CYP2B6; 50 μM) was 79.7% and 77.1%. For the same molecule, the IC50 (CYP2B6; HLM, reversible, without pre-incubation) was over 50 µM, the “Predicted CL sys” value ([1]; female rat liver microsomes, normal) was 10.7 mL/min/kg and the CLint scaled at 1 µM ([1]; female, rat, microsomes) was 13.3 mL/min/kg. The half-life at 1 µM ([1]; female, rat, microsomes, pH 7.4, in vitro t1/2) was 187 min, the CLint scaled at 1 µM ([1]; male, rat, microsomes) was 65.9 mL/min/kg and the half-life at 1 µM ([1]; male, rat, microsomes, pH 7.4, in vitro t1/2) was 37.9 min. The half-life at 1 µM ([1]; pH 7.4, male rat liver microsomes, FMO deactivation, read-out: in vitro t1/2) was 41.7 min, the “R3 value (CYP2B6 induction, basic kinetic model)” value (CYP2B6 mRNA) was at most 0.8 and the “induction on CYP2B6 mRNA expression” value (CYP2B6 mRNA; 20 uM) was >2-fold induction on CYP1A2, 2B6, 3A4, 2C9 mRNA expression at 20 uM. For the same molecule, the “Gene expression Percent of PC (%)” value (CYP2B6 mRNA; CYP2B6, donor seven, 1 µM) was 9.50%, the “Gene expression Percent of PC (%)” value (CYP2B6 mRNA; CYP2B6, donor seven, 3 µM) was 1.70% and the “Gene expression Percent of PC (%)” value (CYP2B6 mRNA; CYP2B6, donor seven, 10 µM) was 60.8%. For the same molecule, the “Gene expression Percent of PC (%)” value (CYP2B6 mRNA; CYP2B6, donor seven, 20 µM) was 22.4%, the “Gene expression Percent of PC (%)” value (CYP2B6 mRNA; CYP2B6, donor seven, 30 µM) was 43.7% and the “Gene expression Percent of PC (%)” value (CYP2B6 mRNA; CYP2B6, donor six, 1 µM) was 2.50%. The “Gene expression Percent of PC (%)” value (CYP2B6 mRNA; CYP2B6, donor six, 3 µM) was 5.50%, the “Gene expression Percent of PC (%)” value (CYP2B6 mRNA; CYP2B6, donor six, 10 µM) was 34.3% and the “Gene expression Percent of PC (%)” value (CYP2B6 mRNA; CYP2B6, donor six, 20 µM) was 36.8%. The “Gene expression Percent of PC (%)” value (CYP2B6 mRNA; CYP2B6, donor six, 30 µM) was 25.2%, the “Gene expression Percent of PC (%)” value (CYP2B6 mRNA; CYP2B6, donor two, 1 µM) was 5.40% and the “Gene expression Percent of PC (%)” value (CYP2B6 mRNA; CYP2B6, donor two, 3 µM) was 2.30%. For the same molecule, the “Gene expression Percent of PC (%)” value (CYP2B6 mRNA; CYP2B6, donor two, 10 µM) was 29.6%, the “Gene expression Percent of PC (%)” value (CYP2B6 mRNA; CYP2B6, donor two, 20 µM) was 18.1% and the “Gene expression Percent of PC (%)” value (CYP2B6 mRNA; CYP2B6, donor two, 30 µM) was 39.0%. The “Emax, CYP2B6 expression” value (CYP2B6 mRNA; donor seven) was 5.42 fold, the “Emax, CYP2B6 expression” value (CYP2B6 mRNA; donor six) was 7.94 fold and the “Emax, CYP2B6 expression” value (CYP2B6 mRNA; donor two) was 3.39 fold. For the same molecule, the “activity loss of CYP2C9” value (CYP2C9) was 14.6%, the “induction on CYP2C9 mRNA expression” value (CYP2C9 mRNA; 20 uM) was >2-fold induction on CYP1A2, 2B6, 3A4, 2C9 mRNA expression at 20 uM and the “Gene expression Percent of PC (%)” value (CYP2C9 mRNA; CYP2C9, donor eight, 0.3 µM) was 5.23%. For the same molecule, the “Gene expression Percent of PC (%)” value (CYP2C9 mRNA; CYP2C9, donor eight, 3 µM) was 20.0%, the “Gene expression Percent of PC (%)” value (CYP2C9 mRNA; CYP2C9, donor eight, 20 µM) was 54.5% and the “Gene expression Percent of PC (%)” value (CYP2C9 mRNA; CYP2C9, donor four, 0.3 µM) was 16.1%. For the same molecule, the “Gene expression Percent of PC (%)” value (CYP2C9 mRNA; CYP2C9, donor four, 3 µM) was 28.8%, the “Gene expression Percent of PC (%)” value (CYP2C9 mRNA; CYP2C9, donor four, 20 µM) was 81.6% and the “Gene expression Percent of PC (%)” value (CYP2C9 mRNA; CYP2C9, donor one, 0.3 µM) was 12.7%. The “Gene expression Percent of PC (%)” value (CYP2C9 mRNA; CYP2C9, donor one, 3 µM) was 18.0% and the “Gene expression Percent of PC (%)” value (CYP2C9 mRNA; CYP2C9, donor one, 20 µM) was 59.0%.
